Data: US9283257B2, “Compositions comprising solanum tuberosum for lowering cytosolic NADH level to mimic calorie restriction” (Nox Technologies, Inc., priority 2009, dated 2016)
Where two headings read alike, the source gives them in different places.

Tested on: NADH levels in yeast
Assay: yeast NADH autofluorescence assay
Assay type: cell-based, Saccharomyces cerevisiae
Description: Reduced forms of NAD(P)H show fluorescence with peaks of excitation and emission in the regions of 340 and 450 nm, respectively, that are used to monitor changes in cytosolic NAD(P)H levels. Because oxidized forms of these pyridine nucleotides have minimal fluorescence at this wavelength, a specific strain of Saccharomyces cerevisiae is used as the primary indicator and the assay is set up in a […] microtiter plate format. Fluorescence measurements are taken with an automated plate reader after 2 h of incubation in the presence of at least three log dilutions of the candidate calorie restriction mimic under investigation.
A 10 mL culture of S. cerevisiae (wild type-BY4741, available from American Type Culture Collection, Manassas, Va., ATCC Number 201388) Genotype/ORF/Gene MATa his3delta1 leu2delta0 met15delta0 ura3delta0. The yeast cells are grown overnight in Yeast Extract Peptone Dextrose (YEPD) liquid medium at 30 C with shaking. OD600 of the culture should be between 0.800 and 1.000 prior to assay usage. To remove unwanted autofluorescence, the medium components are removed by the following process.
Aliquots of the yeast culture are transferred to individual 1 mL micro-centrifuge tubes, and the yeast are pelleted in a bench-top centrifuge by spinning at 1000 RPM for 10 min. Excessive centrifugation speeds (over 1000 rpm) are not used because they could damage the yeast; and live yeast are required for the assay. The medium is decanted, and the yeast are resuspended in an equal volume of 1× phosphate buffered saline (137 mM NaCl, 2.7 mM KCl, 10 mM Na2HPO4, 1.76 mM KH2PO4, pH 7.4) and 7.5 mM glucose (PBSG). […] This preparation of yeast is used in the subsequent auto-fluorescence measurements at an optical density (bulk turbidity) at 600 nm between 0.8 and 1.0.
For fluorescence reading samples are added to a black 96 well cell culture plate. […] A single well of each compound or preparation 5 μL+100 μL of 1×PBSG should be added to account for the fluorescence due to additive.
Experiments are conducted using a Fluoroskan II (Titer-Tek) fluorescent plate reader, which is controlled by Genesis software v 2.0 and used in accordance with the manufacturer' instructions. […] These parameters include a) type—whether the measurement is a single measurement or series of measurement over a given time (kinetic), b) excitation and emission wavelengths (for NADH autofluorescence the excitation wavelength is 340 nm and the emission wavelength is 450 nm.) c) interval at which measurements should be taken (every 20 seconds is sufficient) d) duration of each reading which is set at 5 sec per well, and e) the duration of the measurement which is set to 1 hr. […]

**Q.** With `O=C(O)CC(=O)C(=O)O` [Oxaloacetic acid] as the molecule, how does the EC50 (Saccharomyces cerevisiae, read-out: Concentration of known stimulators of NADH oxidation to increase NADH consumption by 50% in the yeast system) read?
**A.** Its EC50 is 20 µM.

**Q.** With `CC1(C)CCC2=C(O1)c1ccccc1C(=O)C2=O` [β-Lapachrone] as the molecule, how does the EC50 (yeast system; read-out: Concentration of known stimulators of NADH oxidation to increase NADH consumption by 50% in the yeast system) read?
**A.** The EC50 was 40 µM.

**Q.** `O=CC[C@@H](O)[C@H](O)[C@H](O)CO` [2-Deoxyglucose, 2-deoxy-D-glucose] was tested. Which EC50 (Saccharomyces cerevisiae; read-out: Concentration of known stimulators of NADH oxidation to increase NADH consumption by 50% in the yeast system) did it give?
**A.** Its EC50 is 2000 µM.

**Q.** And the “cytosolic NADH levels” value (glucose of the yeast culture medium replaced with 2DG)?
**A.** The value was “reduced”.
